In publication PMC3527451, “A Pilot Randomized, Placebo Controlled, Double Blind Phase I Trial of the Novel SIRT1 Activator SRT2104 in Elderly Volunteers” (PLoS ONE, 2012):

Experiments:
[1] = tested on: elderly male and female volunteers; experiment: Safety and tolerability, treatment-emergent adverse events in elderly volunteers; type: in vivo, human; conditions: for serum creatinine of one subject: 0.5 g/day cohort
Method: This was a phase I, single-center, double-blind, randomized, placebo-controlled, parallel-arm study to assess the safety, tolerability, pharmacokinetic and initial pharmacodynamic properties of SRT2104 (Sirtris Pharmaceuticals, Cambridge, MA, USA) administered for the first time to male and female elderly volunteers 60 to 80 years of age. Volunteers were enrolled between 01 Oct 2009 and 5 Feb 2010. Doses of 0.5 and 2.0 g or matching placebo were administered once daily for 28 consecutive days. The selection of the doses investigated in this study was based upon safety and pharmacokinetic data obtained from a previous clinical study involving SRT2104 [19]. Suitability of participants was defined on the basis of a medical history, physical examination, vital signs, electrocardiogram and laboratory measurements. Subjects were required to have normal fasting glucose levels (4.4 to 6.0 mmol/L) at screening and a body mass index of at least 18 kg/m^2 and no greater than 30 kg/m^2. […] Subjects were deemed ineligible if they participated in any clinical trial with an investigative medicinal product within the past three months prior to the first dose in the current study, had been exposed to more than three new chemical entities within 12 months of enrollment, or used other concomitant medications and herbal products in the previous 3 months that in the opinion of the investigator could interfere with the study procedures or compromise subject safety. Additional exclusions included: women of childbearing potential and non-sterile men, unless they agreed to use acceptable method of contraception; history of alcoholism or drug abuse (including a positive pre-study drug/alcohol test at screening); use of tobacco or nicotine products; history of complications when donating blood or known relative inaccessibility of veins for venipuncture; donation of blood within three months of enrolment; history of significant drug or other allergies. Participants were asked to maintain their usual level of physical activity for the duration of the study.
At every visit (including at screening and follow-up), blood and urine samples were collected for clinical laboratory assessments (general blood biochemistry, full blood count, coagulation parameters and urinalysis). On the same days, physical examination, vital signs (resting pulse rate, respiration rate, temperature, and blood pressure readings), pre- and post-dose 12-lead ECG and a review of adverse events (AE) and any medications received were also performed. Safety evaluations were based on the incidence, severity and type of AEs and clinically significant changes from baseline in physical examination findings, vital signs or clinical laboratory results.

39 common receptors = tested on: 39 common receptors; design: method as in SRT2104 Investigator's Brochure; conditions: in vitro; ref SRT2104 Investigator's Brochure; cited from earlier work
[2] = 28 days continuous administration

Cc1nc(-c2cccnc2)sc1C(=O)Nc1ccccc1-c1cn2c(CN3CCOCC3)csc2n1 [SRT2104]
safety and tolerability ([1]; 0.5 and 2.0 g/day for 28 days): generally safe and well tolerated | Abdominal distension, number of subjects ([1]; 0.5 g/day (n = 8)): 1 | Abdominal distension, percent of subjects ([1]; 0.5 g/day (n = 8)): (13%) | Abdominal pain lower, number of subjects ([1]; 0.5 g/day (n = 8)): 1 | Abdominal pain lower, percent of subjects ([1]; 0.5 g/day (n = 8)): (13%) | Any adverse event, percent of subjects ([1]; 0.5 g/day (n = 8)): (100%) | Application site haematoma, number of subjects ([1]; 0.5 g/day (n = 8)): 1 | Application site haematoma, percent of subjects ([1]; 0.5 g/day (n = 8)): (13%) | Arthralgia, number of subjects ([1]; 0.5 g/day (n = 8)): 1 | Arthralgia, percent of subjects ([1]; 0.5 g/day (n = 8)): (13%) | Back pain, number of subjects ([1]; 0.5 g/day (n = 8)): 1 | Back pain, percent of subjects ([1]; 0.5 g/day (n = 8)): (13%) | Blood creatinine increased, number of subjects ([1]; 0.5 g/day (n = 8)): 1 | Blood creatinine increased, percent of subjects ([1]; 0.5 g/day (n = 8)): (13%) | Constipation, number of subjects ([1]; 0.5 g/day (n = 8)): 0 | Cough, number of subjects ([1]; 0.5 g/day (n = 8)): 0 | Decreased Appetite, number of subjects ([1]; 0.5 g/day (n = 8)): 1 | Decreased Appetite, percent of subjects ([1]; 0.5 g/day (n = 8)): (13%) | Diarrhoea, number of subjects ([1]; 0.5 g/day (n = 8)): 1 | Diarrhoea, percent of subjects ([1]; 0.5 g/day (n = 8)): (13%) | Dizziness, number of subjects ([1]; 0.5 g/day (n = 8)): 0 | Dry eye, number of subjects ([1]; 0.5 g/day (n = 8)): 0 | Dysphonia, number of subjects ([1]; 0.5 g/day (n = 8)): 0 | Epistaxis, number of subjects ([1]; 0.5 g/day (n = 8)): 0 | Erythema, number of subjects ([1]; 0.5 g/day (n = 8)): 1 | Erythema, percent of subjects ([1]; 0.5 g/day (n = 8)): (13%) | Eye pain, number of subjects ([1]; 0.5 g/day (n = 8)): 0 | Fall, number of subjects ([1]; 0.5 g/day (n = 8)): 0 | Fatigue, number of subjects ([1]; 0.5 g/day (n = 8)): 0 | Headache, number of subjects ([1]; 0.5 g/day (n = 8)): 5 | Headache, percent of subjects ([1]; 0.5 g/day (n = 8)): (63%) | Insomnia, number of subjects ([1]; 0.5 g/day (n = 8)): 1 | Insomnia, percent of subjects ([1]; 0.5 g/day (n = 8)): (13%) | Joint stiffness, number of subjects ([1]; 0.5 g/day (n = 8)): 0 | Lethargy, number of subjects ([1]; 0.5 g/day (n = 8)): 1 | Lethargy, percent of subjects ([1]; 0.5 g/day (n = 8)): (13%) | Limb injury, number of subjects ([1]; 0.5 g/day (n = 8)): 0 | Mass, number of subjects ([1]; 0.5 g/day (n = 8)): 0 | Migraine, number of subjects ([1]; 0.5 g/day (n = 8)): 1 | Migraine, percent of subjects ([1]; 0.5 g/day (n = 8)): (13%) | Muscle spasms, number of subjects ([1]; 0.5 g/day (n = 8)): 0 | Muscular weakness, number of subjects ([1]; 0.5 g/day (n = 8)): 0 | Nasopharyngitis, number of subjects ([1]; 0.5 g/day (n = 8)): 1 | Nasopharyngitis, percent of subjects ([1]; 0.5 g/day (n = 8)): (13%) | Nausea, number of subjects ([1]; 0.5 g/day (n = 8)): 1 | Nausea, percent of subjects ([1]; 0.5 g/day (n = 8)): (13%) | Number of subjects experiencing any adverse event ([1]; 0.5 g/day (n = 8)): 8 | Palpitations, number of subjects ([1]; 0.5 g/day (n = 8)): 1 | Palpitations, percent of subjects ([1]; 0.5 g/day (n = 8)): (13%) | Procedural pain, number of subjects ([1]; 0.5 g/day (n = 8)): 1 | Procedural pain, percent of subjects ([1]; 0.5 g/day (n = 8)): (13%) | Rash, number of subjects ([1]; 0.5 g/day (n = 8)): 1 | Rash, percent of subjects ([1]; 0.5 g/day (n = 8)): (13%) | Sensation of heaviness, number of subjects ([1]; 0.5 g/day (n = 8)): 1 | Sensation of heaviness, percent of subjects ([1]; 0.5 g/day (n = 8)): (13%) | Sleep disorder, number of subjects ([1]; 0.5 g/day (n = 8)): 1 | Sleep disorder, percent of subjects ([1]; 0.5 g/day (n = 8)): (13%) | Syncope vasovagal, number of subjects ([1]; 0.5 g/day (n = 8)): 0 | Tenderness, number of subjects ([1]; 0.5 g/day (n = 8)): 0 | Thermal burn, number of subjects ([1]; 0.5 g/day (n = 8)): 0 | Urine output increased, number of subjects ([1]; 0.5 g/day (n = 8)): 1 | Urine output increased, percent of subjects ([1]; 0.5 g/day (n = 8)): (13%) | Vomiting, number of subjects ([1]; 0.5 g/day (n = 8)): 1 | Vomiting, percent of subjects ([1]; 0.5 g/day (n = 8)): (13%) | serum creatinine of one subject ([1]; day 14 (drug stopped)): 151 µmol/L | serum creatinine of one subject ([1]; day 21 (normalization, drug restarted)): 126 µmol/L | serum creatinine of one subject ([1]; day 28 (relapse)): 154 µmol/L | serum creatinine of one subject ([1]; end of study follow up visit): 116 µmol/L | Abdominal distension, number of subjects ([1]; 2.0 g/day (n = 9)): 0 | Abdominal pain lower, number of subjects ([1]; 2.0 g/day (n = 9)): 0 | Any adverse event, percent of subjects ([1]; 2.0 g/day (n = 9)): (100%) | Application site haematoma, number of subjects ([1]; 2.0 g/day (n = 9)): 1 | Application site haematoma, percent of subjects ([1]; 2.0 g/day (n = 9)): (11%) | Arthralgia, number of subjects ([1]; 2.0 g/day (n = 9)): 0 | Back pain, number of subjects ([1]; 2.0 g/day (n = 9)): 0 | Blood creatinine increased, number of subjects ([1]; 2.0 g/day (n = 9)): 0 | Constipation, number of subjects ([1]; 2.0 g/day (n = 9)): 1 | Constipation, percent of subjects ([1]; 2.0 g/day (n = 9)): (11%) | Cough, number of subjects ([1]; 2.0 g/day (n = 9)): 1 | Cough, percent of subjects ([1]; 2.0 g/day (n = 9)): (11%) | Decreased Appetite, number of subjects ([1]; 2.0 g/day (n = 9)): 0 | Diarrhoea, number of subjects ([1]; 2.0 g/day (n = 9)): 2 | Diarrhoea, percent of subjects ([1]; 2.0 g/day (n = 9)): (22%) | Dizziness, number of subjects ([1]; 2.0 g/day (n = 9)): 1 | Dizziness, percent of subjects ([1]; 2.0 g/day (n = 9)): (11%) | Dry eye, number of subjects ([1]; 2.0 g/day (n = 9)): 0 | Dysphonia, number of subjects ([1]; 2.0 g/day (n = 9)): 1 | Dysphonia, percent of subjects ([1]; 2.0 g/day (n = 9)): (11%) | Epistaxis, number of subjects ([1]; 2.0 g/day (n = 9)): 0 | Erythema, number of subjects ([1]; 2.0 g/day (n = 9)): 0 | Eye pain, number of subjects ([1]; 2.0 g/day (n = 9)): 0 | Fall, number of subjects ([1]; 2.0 g/day (n = 9)): 0 | Fatigue, number of subjects ([1]; 2.0 g/day (n = 9)): 0 | Headache, number of subjects ([1]; 2.0 g/day (n = 9)): 1 | Headache, percent of subjects ([1]; 2.0 g/day (n = 9)): (11%) | Insomnia, number of subjects ([1]; 2.0 g/day (n = 9)): 0 | Joint stiffness, number of subjects ([1]; 2.0 g/day (n = 9)): 0 | Lethargy, number of subjects ([1]; 2.0 g/day (n = 9)): 0 | Limb injury, number of subjects ([1]; 2.0 g/day (n = 9)): 1 | Limb injury, percent of subjects ([1]; 2.0 g/day (n = 9)): (11%) | Mass, number of subjects ([1]; 2.0 g/day (n = 9)): 0 | Migraine, number of subjects ([1]; 2.0 g/day (n = 9)): 0 | Muscle spasms, number of subjects ([1]; 2.0 g/day (n = 9)): 0 | Muscular weakness, number of subjects ([1]; 2.0 g/day (n = 9)): 0 | Nasopharyngitis, number of subjects ([1]; 2.0 g/day (n = 9)): 4 | Nasopharyngitis, percent of subjects ([1]; 2.0 g/day (n = 9)): (44%) | Nausea, number of subjects ([1]; 2.0 g/day (n = 9)): 0 | Number of subjects experiencing any adverse event ([1]; 2.0 g/day (n = 9)): 9 | Palpitations, number of subjects ([1]; 2.0 g/day (n = 9)): 0 | Procedural pain, number of subjects ([1]; 2.0 g/day (n = 9)): 0 | Rash, number of subjects ([1]; 2.0 g/day (n = 9)): 0 | Sensation of heaviness, number of subjects ([1]; 2.0 g/day (n = 9)): 0 | Sleep disorder, number of subjects ([1]; 2.0 g/day (n = 9)): 0 | Syncope vasovagal, number of subjects ([1]; 2.0 g/day (n = 9)): 1 | Syncope vasovagal, percent of subjects ([1]; 2.0 g/day (n = 9)): (11%) | Tenderness, number of subjects ([1]; 2.0 g/day (n = 9)): 0 | Thermal burn, number of subjects ([1]; 2.0 g/day (n = 9)): 1 | Thermal burn, percent of subjects ([1]; 2.0 g/day (n = 9)): (11%) | Urine output increased, number of subjects ([1]; 2.0 g/day (n = 9)): 0 | Vomiting, number of subjects ([1]; 2.0 g/day (n = 9)): 0 | dose-limiting toxicities [1, 2]: no dose-limiting toxicities | serious adverse events [1, 2]: no serious adverse events | inhibitory activity against 39 common receptors (39 common receptors): no significant inhibitory activity
